Read-outs that look alike come from different tables or passages of the source.
Experiments:
Test in all cases: Herbicidal activity for paddy test
Assay type in all cases: in vivo
ECHOR = conditions: for pest or weed control at 2 g/ha: 0.002 kg/ha; for pest or weed control at 8 g/ha: 0.008 kg/ha; for pest or weed control at 31 g/ha: 0.031 kg/ha; for pest or weed control at 125 g/ha: 0.125 kg/ha; for pest or weed control at 500 g/ha: 0.500 kg/ha
From the text: (§1) The sterilized sandy loam soil is filled in test pot having a surface area of 348 cm^2 for upland test conditions or 115 cm^2 for paddy test species were planted in furrows.
(§2) The herbicidal activity data were taken visually by percent control, wherein 0 signifies no herbicidal effect and 100 signifies complete kill.

MOOVA = conditions: for pest or weed control at 2 g/ha: 0.002 kg/ha; for pest or weed control at 8 g/ha: 0.008 kg/ha; for pest or weed control at 31 g/ha: 0.031 kg/ha; for pest or weed control at 125 g/ha: 0.125 kg/ha; for pest or weed control at 500 g/ha: 0.500 kg/ha
From the text: as §1, §2

ORYSA = conditions: for plant injury at 2 g/ha: 0.002 kg/ha; for plant injury at 8 g/ha: 0.008 kg/ha; for plant injury at 31 g/ha: 0.031 kg/ha; for plant injury at 125 g/ha: 0.125 kg/ha; for plant injury at 500 g/ha: 0.500 kg/ha
From the text: as §1, §2

SAGPY = conditions: for pest or weed control at 2 g/ha: 0.002 kg/ha; for pest or weed control at 8 g/ha: 0.008 kg/ha; for pest or weed control at 31 g/ha: 0.031 kg/ha; for pest or weed control at 125 g/ha: 0.125 kg/ha; for pest or weed control at 500 g/ha: 0.500 kg/ha
From the text: as §1, §2

SCPJU = conditions: for pest or weed control at 2 g/ha: 0.002 kg/ha; for pest or weed control at 8 g/ha: 0.008 kg/ha; for pest or weed control at 31 g/ha: 0.031 kg/ha; for pest or weed control at 125 g/ha: 0.125 kg/ha; for pest or weed control at 500 g/ha: 0.500 kg/ha
From the text: as §1, §2

[1] = 3 Leaf, read-out: Herbicidal activity, ORYSA (3 Leaf)
[2] = seed, read-out: Herbicidal activity, ORYSA (seed)

Row | SMILES | pest or weed control at 2 g/ha (ECHOR) [%] | pest or weed control at 8 g/ha (ECHOR) [%] | pest or weed control at 31 g/ha (ECHOR) [%] | pest or weed control at 125 g/ha (ECHOR) [%] | pest or weed control at 500 g/ha (ECHOR) [%] | pest or weed control at 2 g/ha (MOOVA) [%] | pest or weed control at 8 g/ha (MOOVA) [%] | pest or weed control at 31 g/ha (MOOVA) [%] | pest or weed control at 125 g/ha (MOOVA) [%] | pest or weed control at 500 g/ha (MOOVA) [%] | plant injury at 2 g/ha (ORYSA; [1]) [%] | plant injury at 8 g/ha (ORYSA; [1]) [%] | plant injury at 31 g/ha (ORYSA; [1]) [%] | plant injury at 125 g/ha (ORYSA; [1]) [%] | plant injury at 500 g/ha (ORYSA; [1]) [%] | plant injury at 2 g/ha (ORYSA; [2]) [%] | plant injury at 8 g/ha (ORYSA; [2]) [%] | plant injury at 31 g/ha (ORYSA; [2]) [%] | plant injury at 125 g/ha (ORYSA; [2]) [%] | plant injury at 500 g/ha (ORYSA; [2]) [%] | further results
1 | CCCC(=NOC)C1=C(O)CC(c2c(C)c(C)c3c(c2C)CC(C)(CC)C3)CC1=O (stereo not drawn) [Compound 16] | 0 | 30 | 70 | 100 | 100 | 0 | 0 | 30 | 50 | 50 | 0 | 0 | 0 | 0 | 30 | 0 | 0 | 30 | 100 | 100 | pest or weed control at 2 g/ha (SAGPY): 0%; pest or weed control at 8 g/ha (SAGPY): 0%; pest or weed control at 31 g/ha (SAGPY): 0%; pest or weed control at 125 g/ha (SAGPY): 0%; pest or weed control at 500 g/ha (SAGPY): 30%; pest or weed control at 2 g/ha (SCPJU): 0%; pest or weed control at 8 g/ha (SCPJU): 0%; pest or weed control at 31 g/ha (SCPJU): 0%; pest or weed control at 125 g/ha (SCPJU): 0%; pest or weed control at 500 g/ha (SCPJU): 0%
2 | C=CCON=C(CCC)C1=C(O)CC(c2c(C)c(C)c3c(c2C)CC(C)(C)C3)CC1=O (stereo not drawn) [Compound 8] | 0 | 40 | 100 | 100 | 100 | 0 | 0 | 0 | 0 | 0 | 0 | 0 | 0 | 0 | 0 | 0 | 0 | 60 | 100 | 100 | pest or weed control at 2 g/ha (SAGPY): 0%; pest or weed control at 8 g/ha (SAGPY): 0%; pest or weed control at 31 g/ha (SAGPY): 0%; pest or weed control at 125 g/ha (SAGPY): 0%; pest or weed control at 500 g/ha (SAGPY): 0%; pest or weed control at 2 g/ha (SCPJU): 0%; pest or weed control at 8 g/ha (SCPJU): 0%; pest or weed control at 31 g/ha (SCPJU): 0%; pest or weed control at 125 g/ha (SCPJU): 0%; pest or weed control at 500 g/ha (SCPJU): 0%
3 | CCON=C(CC)C1=C(O)CC(c2c(C)c(C)c3c(c2C)CC(C)(CC)C3)CC1=O (stereo not drawn) [Compound 12] | 30 | 70 | 100 | 100 | 100 | 0 | 0 | 0 | 0 | 50 | 0 | 0 | 0 | 0 | 40 | 0 | 0 | 30 | 100 | 100 | pest or weed control at 2 g/ha (SAGPY): 0%; pest or weed control at 8 g/ha (SAGPY): 0%; pest or weed control at 31 g/ha (SAGPY): 0%; pest or weed control at 125 g/ha (SAGPY): 0%; pest or weed control at 500 g/ha (SAGPY): 30%; pest or weed control at 2 g/ha (SCPJU): 0%; pest or weed control at 8 g/ha (SCPJU): 0%; pest or weed control at 31 g/ha (SCPJU): 0%; pest or weed control at 125 g/ha (SCPJU): 0%; pest or weed control at 500 g/ha (SCPJU): 60%
4 | CCC(=NOC)C1=C(O)CC(c2c(C)c(C)c3c(c2Cl)CC(C)(C)C3)CC1=O (stereo not drawn) [Compound 38] | 0 | 95 | 100 | 100 | 100 | 0 | 0 | 0 | 0 | 0 | 0 | 0 | 0 | 50 | 100 | 0 | 20 | 100 | 100 | 100 | pest or weed control at 2 g/ha (SAGPY): 0%; pest or weed control at 8 g/ha (SAGPY): 0%; pest or weed control at 31 g/ha (SAGPY): 0%; pest or weed control at 125 g/ha (SAGPY): 0%; pest or weed control at 500 g/ha (SAGPY): 0%; pest or weed control at 2 g/ha (SCPJU): 0%; pest or weed control at 8 g/ha (SCPJU): 0%; pest or weed control at 31 g/ha (SCPJU): 0%; pest or weed control at 125 g/ha (SCPJU): 0%; pest or weed control at 500 g/ha (SCPJU): 0%

Source: patent publication US6096930A, “Herbicidal cyclohexane-1,3-dione derivatives and their preparation process” (Korea Research Institute of Chemical Technology, priority 1994, dated 2000)
